The test system of one test is NF-κB. As to the kind of experiment: NF-κB DNA binding, gel mobility shift assay (EMSA). In kind it is cell-based, mouse. As to conditions: proximal tubular cells, PPS 800 μg/ml for ½ hour before TNFα 10 ng/ml, nuclear protein after 1 hour. The method, then:
Additionally, NF-κB DNA binding was examined by gel mobility shift assay (EMSA). Briefly, proximal tubular cells were pre-incubated with or without PPS (800 μg/ml) for ½ hour before the addition of TNFα (10 ng/ml). Nuclear protein was extracted from cells 1 hour after treatment. A NF-κB probe was prepared by annealing complementary single-stranded oligonucleotides with 5′-ACTG overhangs (MWG Biotechnologies, Inc.) and were labeled by filling in with [-^32P]dGTP and [-^32P]dCTP using Klenow enzyme. Labeled probes were purified with Nuctrap purification columns (Roche Applied Science). EMSAs were performed using 10^5 cpm of labeled probe and 10 μg of nuclear extracts/reaction. DNA binding complexes were separated by electrophoresis on a 5% polyacrylamide-Tris/glycine-EDTA gel, which was dried and exposed to X-ray film.
On the technique in general: In EMSA bound probe runs differently from free probe, usually more slowly.

The next test deals with ERK1/2. As to the kind of experiment: TNFα stimulated ERK1/2 phosphorylation in proximal tubular cells, Western-blot. It counts as cell-based, mouse. The protocol:
The activation of NF-κB and mitogen activated protein kinases including p38, JNK (Jun N-terminal kinase), and ERK (extracellular signal regulated kinase) pathways play an essential role in proinflammatory actions of TNFα. Thus, it was examined whether PPS affected the phosphorylation of IκB, ERK, p38, and JNK by TNFα. Proximal tubular cells were allowed to grow to 70% confluency in […] petri-dish. Cell lysates were collected before or 15, 30, 60, and 120 minutes after TNFα treatment (10 ng/ml). Cells in some dishes were pre-incubated with PPS (400 μg/ml) for ½ hour before exposure to TNFα. The levels of phosphorylated IκB, ERK, p38, and JNK were determined by Western-blots. Briefly, equal amounts of protein samples (10-20 μg/lane) were loaded onto SDS-PAGE gels. After electrophoresis, proteins were transferred to nitrocellulose membranes and blotted with antibody against phosphorylated IκB, ERK, p38, or JNK (Cell signaling, Boston, Mass.). After the first analysis, the membranes were stripped to re-probe with antibody against total IκB, ERK, p38 or JNK, and ERK and finally with antibody against β-actin (Cell signaling, Boston, Mass.).

Test [1] in a line: Plasma lipid and lipoprotein analyses in WHHL rabbits. In kind it is in vivo, rabbit. As to conditions: for Free cholesterol / Phospholipids / Total cholesterol / Triglycerides: mean ± SEM, 5 animals. The method, then:
Blood was drawn from rabbits after a 12-hour fast into tubes containing EDTA at the beginning of the study, every two weeks during treatment with the atherogenic diet, and at the end of the study. The total cholesterol and triglyceride concentrations (Sigma) as well as unesterified cholesterol and phospholipids (Wako Chemicals, Richmond, Va.) were determined on plasma samples using enzymatic methods on a Hitachi 911 Autoanalyzer (Boehringer Mannheim). Post-heparin hepatic lipase activity was determined as described (Iverius P H, Brunzell J D. Am J Physiol 1985; 249: E107-E114).

The subject of a further test is MMP-9. As to the kind of experiment: Zymography of U937 cell supernatants, MMP-9. In kind it is cell-based, human. As to conditions: U937 cells stimulated with 10 ng/ml TNF-α, 100 μg/ml PPS; P<0.01. The protocol:
Human pro-monocytic U937 cells were obtained from American Type Culture Collection (Manassas, Va.) and grown in RPMI medium supplemented with 10% FBS. U937 cells were plated in six-well plates at a density of 5×10^6 cells/ml. The cells were then stimulated with 10 ng/ml TNF-α, in the presence or absence of either increasing concentrations of PPS (10-100 μg/ml) or heparin (100 μg/ml), and incubated at 37° C. for 3 hours. Following stimulation, cells were placed in 0.1% BSA-serum-free medium for 16-18 hours. The media was then collected, centrifuged, and supernatants were stored at −80° C. for the assessment of MMP activity. The cell number was determined by direct cell counting.
MMP activity in aortic extracts and conditioned media from monocytes was assessed, as previously described (Jacot T A, et al., Lab Invest. 1996; 75:791-79). Briefly, aortic segments were homogenized and extracted in RIPA buffer (25 mM Tris, pH 7.4, 150 mM KCl, 5 mM EDTA, 1% Nonidet P-40, 0.5% sodium deoxycholate, and 0.1% SDS). Insoluble material was precipitated by centrifugation, and soluble extracts were collected and stored at −20° C. for further analysis. For in vitro experiments, cell supernatants were centrifuged to remove cellular debris, and diluted appropriately to normalize for cell number. […]

For another test, the system named is TIMP-1, -2, and -3. Briefly: Reverse zymography of aortic extracts. As to conditions: PPS-treated WHHL rabbits, 75 days HC-diet. In kind it is in vivo, rabbit. The protocol: MMP activity in aortic extracts and conditioned media from monocytes was assessed, as previously described (Jacot T A, et al., Lab Invest. 1996; 75:791-79). Briefly, aortic segments were homogenized and extracted in RIPA buffer (25 mM Tris, pH 7.4, 150 mM KCl, 5 mM EDTA, 1% Nonidet P-40, 0.5% sodium deoxycholate, and 0.1% SDS). Insoluble material was precipitated by centrifugation, and soluble extracts were collected and stored at −20° C. for further analysis. For in vitro experiments, cell supernatants were centrifuged to remove cellular debris, and diluted appropriately to normalize for cell number. Aortic extracts and conditioned media were then mixed with sample buffer (1% SDS, 0.08 M Tris pH 6.8, 4% glycerol, and 0.006% bromophenol blue), and loaded onto a 10% gelatin polyacrylamide gel, and processed as described (Jacot T A, et al., Lab Invest. 1996; 75:791-79). For reverse zymography, samples were loaded onto a 15% gelatin polyacrylamide gel containing 0.5% porcine gelatin and 6 μg recombinant gelatinase A, and processed as described (Elliot S J, et al., J Am Soc Nephrol. 1999; 10: 62-68).

A further test concerns MCP-1 and RANTES. As to the kind of experiment: TNFα stimulated MCP-1 and RANTES production by proximal tubular cells, ELISA. In kind it is cell-based, mouse. As to conditions: PPS 200 μg/ml pretreatment, TNFα 10 ng/ml, p<0.01 vs. TNFα alone. The protocol:
A proximal tubular cell line obtained from mice transgenic for SV40 T antigen was grown in DMEM containing 10% FBS. For the measurement of TNFα-stimulated gene expression, 1×10^5 proximal tubular cells were transferred to each well of a 6-well-plate. After placing the cells in 0.1% FBS medium for 24 hours, 10 ng/ml of TNFα was added to test wells. Total RNA was isolated from all wells 4 hours later. MCP-1, RANTES, CXCL1, MIP-2, ICAM-1, and iNOS mRNA levels were determined by real-time PCR as described above and corrected by β-actin mRNA levels. TNFα stimulated MCP-1 and RANTES production and release into the medium was measured in TNFα (10 ng/ml) treated and control cells at 24 hours. The amount of MCP-1 or RANTES in the medium was measured by ELISA (Invitrogen Corporation (Carlsband, Calif.).
To determine the effect of PPS on TNFα induced upregulation of proinflammatory genes, proximal tubular cells were pre-treated with PPS (200 μg/ml) for 1 hour before the addition of TNFα (10 ng/ml). MCP-1, RANTES, CXCL1, MIP-2, ICAM-1, and iNOS mRNA levels were determined 4 hours later by real-time PCR. MCP-1 and RANTES production was also measured.
For orientation: In an ELISA, binding on a coated surface is turned into a signal by an enzyme label.

[2] abbreviates: 45 days HC-diet, PPS group before start of PPS.
[3] abbreviates: 75 days HC-diet, PPS in drinking water for the last 30 days.
The mark [4] stands for this setting: Baseline (3 months of age), PPS group before treatment.

Results on one substance are retold here after patent publication US8871741B2, “Inhibition of TNF-α induced activation of NFKB by pentosan polysulfate” (Icahn School of Medicine at Mount Sinai, priority 2010, dated 2014).

pentosan polysulfate [PPS]: the “TNFα-induced increase in NF-κB DNA binding activity” value in the test on NF-κB was “nearly completely blocked”. Further, in the test with ERK1/2, the “TNFα-stimulated ERK1/2 phosphorylation” value is “suppressed”. For the same substance, in test [1] (setting [2]), the Free cholesterol was 1038.52 ± 128.80 mg/dL, the Phospholipids was determined as 1241.09 ± 142.75 mg/dL, the Total cholesterol amounted to 2133.28 ± 85.04 mg/dL and the Triglycerides amounted to 331.28 ± 86.61 mg/dL. In test [1] (setting [3]), this substance showed a Free cholesterol of 785.46 ± 93.22 mg/dL, a Phospholipids of 878.17 ± 107.98 mg/dL, a Total cholesterol of 1565.40 ± 212.07 mg/dL and a Triglycerides of 184.10 ± 30.19 mg/dL. In addition, in test [1] (setting [4]), the Free cholesterol turned out to be 282.92 ± 13.03 mg/dL, the Phospholipids was determined as 574.59 ± 26.44 mg/dL, the Total cholesterol is 901.18 ± 50.30 mg/dL and the Triglycerides came out at 762.91 ± 72.13 mg/dL. The “plasma lipid levels after 75 days of HC-diet versus 45 days” value in test [1] (PPS-treated WHHL rabbits, a trend towards reduction was observed) is on record as “not significantly different”. For the same substance, the “MMP-9 activity, reduction by PPS treatment” value in the test with MMP-9 is on record as 51.70%±10.77%. The “activity of TIMP-1, -2, and -3 in aortic extracts” value with TIMP-1, -2, and -3 is recorded as “marked increase”. Besides, the “TNFα stimulated MCP-1 and RANTES protein production” value in the test on MCP-1 and RANTES is on record as “decreased”.
